The text below walks through data of patent US20090099141A1, “COMPOSITIONS AND METHODS FOR TREATING VITAMIN D DEFICIENCIES” (priority 2005, published 2009).

This assay can be described thus: Serum level of 25(OH)D in an adult human after oral 250 μg (10,000 IU) vitamin D3 tablets (Nichols method). In kind it is in vivo. The protocol: During the winter months an adult living in a northern region of the United States receiving no vitamin D supplements other than through their normal diet is found to have a serum level of 25(OH)D of about 25 nmole/L. The person is provided with four (4) blister packs, each pack containing four (4) 250 μg (10,000 IU) of vitamin D3. The blister pack has instructions to take one tablet by mouth once a week. The person is instructed to take all of the tablets according to instructions provided on the pack. Blood samples are drawn each week just before a tablet is taken and the serum levels of 25(OH)D are determined. Serum levels of 25(OH)D can be determined by the Nichols method (catalog no. 40-2135; Nichols Institute Diagnostics). Within approximately two months, serum levels increase by about 15 to about 20 nmole/L to a level of at least about 40 nmole/L.
During the winter months an adult living in a northern region of the United States receiving no vitamin D supplements other than through their normal diet is found to have a serum level of 25(OH)D of about 18 nmole/L. The person is provided with four (4) blister packs, each pack having one tablet for each day of the month [about thirty (30) tablets], and each tablet containing 250 μg (10,000 IU) of vitamin D3. The blister pack has instructions to take one tablet by mouth once a day, noting on the pack, where indicated, the date and time each tablet is taken. The person is instructed to take all of the tablets according to instructions provided on the pack. Blood samples are drawn after one (1) week and each week thereafter at approximately the same time and the serum levels of 25(OH)D are determined. Serum levels of 25(OH)D can be determined by the Nichols method (catalog no. 40-2135; Nichols Institute Diagnostics). Within approximately two months, serum levels increase by at least 100 nmole/L to a level of at least about 120 nmole/L and, within about 4 months, increase by at least about 180 nmole/L to a level of at least about 200 nmole/L.
During the winter months an adult living in a northern region of the United States receiving no vitamin D supplements other than through their normal diet is found to have a serum level of 25(OH)D of about 35 nmole/L. The person is provided with four (4) blister packs, each pack containing fifteen (15) 250 μg (10,000 IU) of vitamin D3. The blister pack has instructions to take one tablet by mouth once every other day, noting on the pack, where indicated, the date and time each tablet is taken. The person is instructed to take all of the tablets according to instructions provided on the pack. Blood samples are drawn each week at approximately the same time and the serum levels of 25(OH)D are determined. Serum levels of 25(OH)D can be determined by the Nichols method (catalog no. 40-2135; Nichols Institute Diagnostics). Within approximately one-month serum levels increase by at least about 60-70 nmole/L to a level of at least about 100 nmole/L and within about 4 months […] a level of about 120 nmole/L.

Where [1] appears, read: adult female, baseline about 18 nmole/L, 250 μg (10,000 IU) tablet by mouth once a day, within about 4 months.
The mark [2] stands for this setting: adult female, baseline about 18 nmole/L, 250 μg (10,000 IU) tablet by mouth once a day, within approximately two months.
Where [3] appears, read: adult male, baseline about 35 nmole/L, 250 μg (10,000 IU) tablet by mouth once every other day, within approximately one month.

Each structure is given as a SMILES string.

As for `C=C1CC[C@H](O)C/C1=C/C=C1\CCC[C@]2(C)[C@@H]([C@H](C)CCCC(C)C)CC[C@@H]12` [vitamin D3], the “increase in serum level of 25(OH)D” value reads like this: under setting [1], “at least 180 nmole/L”; under setting [2], “at least 100 nmole/L”; under setting [3], 60 to 70 nmol/L. The “serum level of 25(OH)D” value is recorded as “at least 200 nmole/L” under setting [1]; “at least 120 nmole/L” under setting [2]; “at least 40 nmole/L” (adult male, baseline about 25 nmole/L, 250 μg (10,000 IU) tablet by mouth once a week, within approximately two months); “about 120 nmole/L” (adult male, baseline about 35 nmole/L, 250 μg (10,000 IU) tablet by mouth once every other day, within about 4 months); “at least 100 nmole/L” under setting [3].
